Reference: patent US7309708B2, “Hepatitis C virus inhibitors” (priority 2003, dated 2007)

Tests used:
[1] = test system: HCV replicon (strain 1b) in Huh7 cells; experiment: microbe, parasite or virus in culture; format: cell-based; conditions: Hepatitis C virus, Huh-7, 96 h; Huh7 cells expressing HCV replicon, 4 days; activity range class
Description: This system enabled us to evaluate the effects of our HCV Protease compounds on HCV RNA replication. Briefly, using the HCV strain 1b sequence described in the Lohmann paper (Assession number: AJ238799), an HCV cDNA was generated encoding the 5′ internal ribosome entry site (IRES), the neomycin resistance gene, the EMCV (encephalomyocarditis virus)-IRES and the HCV nonstructural proteins, NS3-NS5B, and 3′ non-translated region (NTR). In vitro transcripts of the cDNA were transfected into the human hepatoma cell line, Huh7. […] Resulting cell lines were characterized for positive and negative strand RNA production and protein production over time.
Huh7 cells, constitutively expressing the HCV replicon, were grown in Dulbecco's Modified Eagle Media (DMEM) containing 10% Fetal calf serum (FCS) and 1 mg/ml G418 (Gibco-BRL). Cells were seeded the night before (1.5×10^4 cells/well) in 96-well tissue-culture sterile plates. Compound and no compound controls were prepared in DMEM containing 4% FCS, 1:100 Penicillin/Streptomysin, 1:100 L-glutamine and 5% DMSO in the dilution plate (0.5% DMSO final concentration in the assay). Compound/DMSO mixes were added to the cells and incubated for 4 days at 37° C. After 4 days, plates were rinsed thoroughly with Phosphate-Buffered Saline (PBS) (3 times 150 μl). The cells were lysed with 25 μl of a lysis assay reagent containing the FRET peptide (RET S1, as described for the in vitro enzyme assay). The lysis assay reagent was made from 5× cell Luciferase cell culture lysis reagent (Promega #E153A) diluted to 1× with distilled water, NaCl added to 150 mM final, the FRET peptide diluted to 10 μM final from a 2 mM stock in 100% DMSO. The plate was then placed into the Cytofluor 4000 instrument which had been set to 340 nm excitation/490 nm emission, automatic mode for 21 cycles and the plate read in a kinetic mode. EC50 determinations were carried out as described for the IC50 determinations.
The replicon construct described for our FRET assay was modified by replacing the resistance gene neomycin with the Blasticidin-resistance gene fused to the N-terminus of the humanized form of Renilla luciferase (restriction sites Asc1/Pme1 used for the subcloning). […] The luciferase reporter assay was set up by seeding huh7 cells the night before at a density of 2×10^6 cells per T75 flask. Cells were washed the next day with 7.5 ml Opti-MEM. Following the Invitrogen protocol, 40 μl DMRIE-C was vortexed with 5 ml Opti-MEM before adding 5 μg HCV reporter replicon RNA. The mix was added to the washed huh7 cells and left for 4 h at 37° C. In the mean time, serial compound dilutions and no compound controls were prepared in DMEM containing 10% FCS and 5% DMSO in the dilution plate (0.5% DMSO final concentration in the assay). Compound/DMSO mixes were added to each well of a 24-well plate. After 4 h, the transfection mix was aspirated, and cells washed with 5 ml of Opti-MEM before trypsinization. Trypsinized cells were resuspended in 10% DMEM and seeded at 2×10^4 cells/well in the 24-well plates containing compound or no compound controls. Plates were incubated for 4 days. After 4 days, media was removed and cells washed with PBS. 100 μl 1× Renilla Luciferase Lysis Buffer (Promega) was immediately added to each well and the plates either frozen at −80° C. for later analysis, or assayed after 15 min of lysis. Lysate (40 μl) from each well was transferred to a 96-well black plate (clear bottom) followed by 200 μl 1× Renilla Luciferase assay substrate. Plates were read immediately on a Packard TopCount NXT using a luminescence program.
The values were graphed and analyzed using XLFit to obtain the EC50 value.

[2] = biological target: T1, HCV NS3/4A protease complex (BMS strain) (UniProt P27958); experiment: Recombinant HCV NS3/4A protease complex FRET peptide assay (BMS strain); format: biochemical, Hepatitis C virus (genotype 1a; conditions: read-out: IC50 (uuM); NS3/4A BMS strain; activity range class
T1 construct: for H77 and J4L6S; fused on or other part: Probably a three-lysine solubilising tail at the C-terminus of NS4A and a His tag from pET21b (Ni-NTA purification); These are printed for the H77 and J4L6S constructs and only inferred for BMS
Description: Serum from an HCV-infected patient was obtained from Dr. T. Wright, San Francisco Hospital. An engineered full-length cDNA (compliment deoxyribonucleic acid) template of the HCV genome (BMS strain) was constructed from DNA fragments obtained by reverse transcription-PCR (RT-PCR) of serum RNA (ribonucleic acid) and using primers selected on the basis of homology between other genotype 1a strains.
The H77 and J4L6S strains were used for production of recombinant NS3/4A protease complexes. […] Briefly, a three-lysine solubilizing tail was added at the 3′-end of the NS4A coding region. […] Briefly, the NS3/4A protease complex expression was induced with 0.5 millimolar (mM) Isopropyl β-D-1-thiogalactopyranoside (IPTG) for 22 hours (h) at 20° C. […] The cells were resuspended in lysis buffer (10 mL/g) consisting of 25 mM N-(2-Hydroxyethyl)Piperazine-N′-(2-Ethane Sulfonic acid) (HEPES), pH 7.5, 20% glycerol, 500 mM Sodium Chloride (NaCl), 0.5% Triton X-100, 1 microgram/milliliter (“μg/mL”) lysozyme, 5 mM Magnesium Chloride (MgCl2), 1 gg/ml DnaseI, 5 mM β-Mercaptoethanol (βME), Protease inhibitor—Ethylenediamine Tetraacetic acid (EDTA) free (Roche), homogenized and incubated for 20 minutes (min) at 4° C. The homogenate was sonicated and clarified by ultra-centrifugation at 235000 g for 1 h at 4° C. Imidazole was added to the supernatant to a final concentration of 15 mM and the pH adjusted to 8.0. The crude protein extract was loaded on a Nickel-Nitrilotriacetic acid (Ni-NTA) column pre-equilibrated with buffer B (25 mM HEPES, pH 8.0, 20% glycerol, 500 mM NaCl, 0.5% Triton X-100, 15 mM imidazole, 5 mM βME). The sample was loaded at a flow rate of 1 mL/min. The column was washed with 15 column volumes of buffer C (same as buffer B except with 0.2% Triton X-100). The protein was eluted with 5 column volumes of buffer D (same as buffer C except with 200 mM Imidazole).
NS3/4A protease complex-containing fractions were pooled and loaded on a desalting column Superdex-S200 pre-equilibrated with buffer D (25 mM HEPES, pH 7.5, 20% glycerol, 300 mM NaCl, 0.2% Triton X-100, 10 mM βME). Sample was loaded at a flow rate of 1 mL/min. NS3/4A protease complex-containing fractions were pooled and concentrated to approximately 0.5 mg/ml.
The enzyme was stored at −80° C., thawed on ice and diluted prior to use in assay buffer. […] The sequence of this peptide is loosely based on the NS4A/NS4B natural cleavage site for the HCV NS3 protease except there is an ester linkage rather than an amide bond at the cleavage site. The peptide substrate was incubated with one of the three recombinant NS3/4A protease complexes, in the absence or presence of a compound of the present invention, and the formation of fluorescent reaction product was followed in real time using a Cytofluor Series 4000.
Assay buffer: 50 mM HEPES, pH 7.5; 0.15 M NaCl; 0.1% Triton; 15% Glycerol; 10 mM βME. Substrate: 2 μM final concentration (from a 2 mM stock solution in DMSO stored at −20° C.). HCV NS3/4A protease type 1a (1b), 2-3 nM final concentration (from a 5 μM stock solution in 25 mM HEPES, pH 7.5, 20% glycerol, 300 mM NaCl, 0.2% Triton-X100, 10 mM βME).
The assay was performed in a 96-well polystyrene black plate from Falcon. Each well contained 25 μl NS3/4A protease complex in assay buffer, 50 μl of a compound of the present invention in 10% DMSO/assay buffer and 25 μl substrate in assay buffer. A control (no compound) was also prepared on the same assay plate.

T1 sequence (P27958 1027-1657, one chain of several): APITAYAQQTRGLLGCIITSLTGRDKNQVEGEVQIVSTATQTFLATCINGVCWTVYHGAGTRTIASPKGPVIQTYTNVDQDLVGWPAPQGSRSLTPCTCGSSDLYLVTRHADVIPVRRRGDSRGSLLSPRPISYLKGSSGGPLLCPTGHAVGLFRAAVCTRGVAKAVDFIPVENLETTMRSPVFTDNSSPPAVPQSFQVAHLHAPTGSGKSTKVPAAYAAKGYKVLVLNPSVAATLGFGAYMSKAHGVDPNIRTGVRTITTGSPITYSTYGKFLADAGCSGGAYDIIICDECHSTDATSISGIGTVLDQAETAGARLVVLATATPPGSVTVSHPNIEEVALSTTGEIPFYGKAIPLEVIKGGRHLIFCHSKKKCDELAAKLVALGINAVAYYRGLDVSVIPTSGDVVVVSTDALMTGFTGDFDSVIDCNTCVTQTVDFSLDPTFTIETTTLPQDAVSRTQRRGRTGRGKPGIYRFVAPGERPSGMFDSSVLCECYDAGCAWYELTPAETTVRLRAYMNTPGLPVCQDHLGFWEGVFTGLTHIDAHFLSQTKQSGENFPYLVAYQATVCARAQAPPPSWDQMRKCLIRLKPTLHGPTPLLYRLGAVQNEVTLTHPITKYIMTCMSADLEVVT

| Structure (SMILES) | EC50 [1] | IC50 [2] |
| --- | --- | --- |
| C=C[C@@H]1C[C@]1(NC(=O)[C@@H]1C[C@@H](Oc2nccc3cc(OC)ccc23)CN1C(=O)[C@@H](NC(=O)OC(C)(C)C)C(C)(C)C)C(=O)NS(=O)(=O)c1cc(Cl)c(Cl)s1 [Compound 1001] | 1000 to 10000 nM | < 100 nM |
| C=C[C@@H]1C[C@]1(NC(=O)[C@@H]1C[C@@H](Oc2nccc3cc(OC)ccc23)CN1C(=O)[C@@H](NC(=O)OC(C)(C)C)C(C)(C)C)C(=O)NS(=O)(=O)c1nnc(NC(C)=O)s1 [Compound 1011] | 1000 to 10000 nM | < 100 nM |
| C=C[C@@H]1C[C@]1(NC(=O)[C@@H]1C[C@@H](Oc2nccc3cc(OC)ccc23)CN1C(=O)[C@@H](NC(=O)OC(C)(C)C)C(C)(C)C)C(=O)NS(=O)(=O)c1cccs1 [Compound 1006] | 100 to 1000 nM | < 100 nM |
| C=C[C@@H]1C[C@]1(NC(=O)[C@@H]1C[C@@H](Oc2nccc3cc(OC)ccc23)CN1C(=O)[C@@H](NC(=O)OC(C)(C)C)C(C)(C)C)C(=O)NS(=O)(=O)c1cn(C)cn1 [Compound 1005] | 1000 to 10000 nM | 1000 to 10000 nM |
| C=C[C@@H]1C[C@]1(NC(=O)[C@@H]1C[C@@H](Oc2nccc3cc(OC)ccc23)CN1C(=O)[C@@H](NC(=O)OC(C)(C)C)C(C)(C)C)C(=O)NS(=O)(=O)c1c(C)nn(C)c1Cl [Compound 1004] | 100 to 1000 nM | 100 to 1000 nM |
| C=C[C@@H]1C[C@]1(NC(=O)[C@@H]1C[C@@H](Oc2nccc3cc(OC)ccc23)CN1C(=O)[C@@H](NC(=O)OC(C)(C)C)C(C)(C)C)C(=O)NS(=O)(=O)c1sc(C)nc1C [Compound 1003] | 100 to 1000 nM | 100 to 1000 nM |
| C=C[C@@H]1C[C@]1(NC(=O)[C@@H]1C[C@@H](Oc2nccc3cc(OC)ccc23)CN1C(=O)[C@@H](NC(=O)OC(C)(C)C)C(C)(C)C)C(=O)NS(=O)(=O)c1ccccc1 [Compound 1007] | 100 to 1000 nM | < 100 nM |
| C=C[C@@H]1C[C@]1(NC(=O)[C@@H]1C[C@@H](Oc2nccc3cc(OC)ccc23)CN1C(=O)[C@@H](NC(=O)OC(C)(C)C)C(C)(C)C)C(=O)NS(=O)(=O)c1c(C)noc1C [Compound 1012] | – | 1000 to 10000 nM |
